The source of these data is US4985417A, “Treatment of glaucoma” (priority 1989, dated 1991).

The target of one data set is carbonic anhydrase. The experiment in a line: carbonic anhydrase inhibition (concentration for 50% inhibition). The conditions noted are these: carbonic anhydrase inhibitory properties; read-out: Conc. for 50% Inhibition. It is filed as biochemical.
For data set [1] the following is noted: cited from earlier work.

Structures can show the parent of a compound that is named as a salt.

For `NS(=O)(=O)c1ccc(NC(=O)[C@@H]2CCCN2)cc1` [4-(L-prolylamino)benzenesulfonamide hydrochloride], the IC50 at carbonic anhydrase was 94.9 nM.

As for `CC(=O)N1CCC[C@H]1C(=O)Nc1ccc(S(N)(=O)=O)cc1` [4-(N-acetyl-L-prolyl-amino)benzenesulfonamide], on carbonic anhydrase, the IC50 stood at 67.5 nM.

In the case of `CC(=O)Nc1nnc(S(N)(=O)=O)s1` [Acetazolamide, acetazolamide], the water solubility result in data set [1] is recorded as “about 0.01 % w/v”.
